Data published in article PMC7932555, “A diffusible signal factor of the intestine dictates Salmonella invasion through its direct control of the virulence activator HilD” (PLoS Pathogens, 2021).
Substitutions are numbered along the chain they refer to. Several values for one entry are separate records, joined by “and”; a condition that tells them apart may be missing. Equal values may be shown once.

How the values were obtained:
Format in all cases: cell-based
sipB::lacZY = sipB::lacZY reporter β-galactosidase assay in strains expressing wild type or mutant HilD; conditions: 20 μM fatty acid (mix: 20 μM of each)
From the text: To test the effect of mutations in hilD, we initially constructed a background Salmonella strain without chromosomal hilC, rtsA and hilD and fused sipB to lacZY to assess SPI-1 expression. hilD with a C-terminal 3XFLAG tag was cloned into pWSK29 under control of the tetRA promoter for tetracycline-inducible expression. This plasmid was subjected to site-directed mutagenesis at specific nucleotides to change selected amino acids to alanine, using the Agilent QuikChange II Site-Directed Mutagenesis kit following their protocol. Mutations were confirmed by DNA sequencing.
Salmonella strains were inoculated into LB buffered with 100 mM MOPS [3-(N-morpholino) propanesulphonic acid] pH 6.7, with necessary antibiotics, and fatty acids or control solvents to be tested. Cultures were incubated at 37° C without aeration overnight, and assays were performed using an established protocol.

HilD [1] = molecular target: T1, HilD (Salmonella typhimurium, UniProt P0CL08, K293A); assay: HilD half-life (degradation) assay by western blot; conditions: HilD K293A-3XFLAG; 20 μM fatty acid
T1 construct: hilD with a C-terminal 3XFLAG tag was cloned into pWSK29 under control of the tetRA promoter; expressed in transfected cells; host or cells: Salmonella Typhimurium strain carrying pWSK29-PtetRA-hilD-3XFLAG (background with chromosomal hilD, hilC and rtsA null)
T1 sequence (P0CL08 1-309 K293A): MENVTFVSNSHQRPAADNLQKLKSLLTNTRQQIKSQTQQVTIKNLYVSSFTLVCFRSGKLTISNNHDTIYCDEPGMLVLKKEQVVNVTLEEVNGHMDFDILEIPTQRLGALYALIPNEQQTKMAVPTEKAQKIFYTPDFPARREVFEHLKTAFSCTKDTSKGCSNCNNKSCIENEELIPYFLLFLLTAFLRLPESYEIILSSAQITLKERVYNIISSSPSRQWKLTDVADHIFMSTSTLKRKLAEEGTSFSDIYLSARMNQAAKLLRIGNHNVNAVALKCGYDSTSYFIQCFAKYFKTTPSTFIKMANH
Protocol: (§1) The HilD half-life was assessed as previously described. Salmonella strains having plasmids with tetracycline-inducible hilD or its mutated sequence with a C-terminal 3XFLAG tag and a sipB::lacZ fusion (for invasion gene expression assessment) were grown overnight and then diluted 1:100 into LB buffered with 100 mM MOPS (pH 6.7) with appropriate antibiotics and fatty acids or control solvents. After 2 hours of growth, aliquots were collected to quantitate sipB::lacZ expression in a β-galactosidase assay. Individual cultures were then equilibrated to an OD600 of 1.0 to ensure equal density at the half-life assay beginning point. New protein production was halted by addition of a cocktail of antibiotics (rifampin, streptomycin and spectinomycin). These cultures were incubated at 37°C and aliquots were collected every 30 minutes for 2 hours. Samples were lysed in 5X sample buffer, boiled, and immunoblotted with an anti-FLAG antibody to monitor HilD.

HilD [2] = molecular target: T2, HilD (Salmonella typhimurium, UniProt P0CL08, K294A); assay: HilD half-life (degradation) assay by western blot; conditions: HilD K294A-3XFLAG; 20 μM fatty acid
T2 construct: hilD with a C-terminal 3XFLAG tag was cloned into pWSK29 under control of the tetRA promoter; expressed in transfected cells; host or cells: Salmonella Typhimurium strain carrying pWSK29-PtetRA-hilD-3XFLAG (background with chromosomal hilD, hilC and rtsA null)
T2 sequence (P0CL08 1-309 K294A): T1 sequence (P0CL08 1-309 K293A) with A293K, K294A
Protocol: as §1

HilD [3] = molecular target: T3, HilD (Salmonella typhimurium, UniProt P0CL08, N44A); assay: HilD half-life (degradation) assay by western blot; conditions: HilD N44A-3XFLAG; 20 μM fatty acid
T3 construct: hilD with a C-terminal 3XFLAG tag was cloned into pWSK29 under control of the tetRA promoter; expressed in transfected cells; host or cells: Salmonella Typhimurium strain carrying pWSK29-PtetRA-hilD-3XFLAG (background with chromosomal hilD, hilC and rtsA null)
T3 sequence (P0CL08 1-309 N44A): T1 sequence (P0CL08 1-309 K293A) with N44A, A293K
Protocol: as §1

HilD [4] = molecular target: T4, HilD (Salmonella typhimurium, UniProt P0CL08, Q290A); assay: HilD half-life (degradation) assay by western blot; conditions: HilD Q290A-3XFLAG; 20 μM fatty acid
T4 construct: hilD with a C-terminal 3XFLAG tag was cloned into pWSK29 under control of the tetRA promoter; expressed in transfected cells; host or cells: Salmonella Typhimurium strain carrying pWSK29-PtetRA-hilD-3XFLAG (background with chromosomal hilD, hilC and rtsA null)
T4 sequence (P0CL08 1-309 Q290A): T1 sequence (P0CL08 1-309 K293A) with Q290A, A293K
Protocol: as §1

HilD [5] = molecular target: T5, HilD (Salmonella typhimurium, UniProt P0CL08, R267A); assay: HilD half-life (degradation) assay by western blot; conditions: HilD R267A-3XFLAG; 20 μM fatty acid
T5 construct: hilD with a C-terminal 3XFLAG tag was cloned into pWSK29 under control of the tetRA promoter; expressed in transfected cells; host or cells: Salmonella Typhimurium strain carrying pWSK29-PtetRA-hilD-3XFLAG (background with chromosomal hilD, hilC and rtsA null)
T5 sequence (P0CL08 1-309 R267A): T1 sequence (P0CL08 1-309 K293A) with R267A, A293K
Protocol: as §1

[6] = strain expressing wild type HilD

SMILES | repression of sipB expression (sipB::lacZY; strain expressing HilD K43A) | repression of sipB expression (sipB::lacZY; strain expressing HilD K293A) | repression of sipB expression (sipB::lacZY; strain expressing HilD K294A) | repression of sipB expression (sipB::lacZY; strain expressing HilD Q290A) | repression of sipB expression (sipB::lacZY; [6]) | HilD degradation (HilD [1]) | HilD degradation (HilD [2]) | HilD degradation (HilD [3]) | HilD degradation (HilD [4]) | HilD degradation (HilD [5])
CCCCCCCCCCCCC/C=C\C(=O)O [c2-HDA, cis-2-hexadecenoic acid] | Repression by c2-HDA, however, remained unaffected | No significant repression | No significant repression | Repression by c2-HDA, however, remained unaffected | ~11 fold and 10.9 fold | protected from degradation | protected from degradation | protected from degradation | degraded as rapidly as wild type HilD | protected from degradation
CCCCCCCCCCCCC/C=C/C(=O)O [t2-HDA, trans-2-hexadecenoic acid] | – | – | – | – | 5.2 fold | rapidly degraded | rapidly degraded | escaped degradation | escaped degradation | escaped degradation
